In the NIST ThermoML archive (doi:10.1021/acs.jced.8b00591):
± gives the expanded uncertainty stated by the source.

Experiment: xn = mol fraction of the nth substance listed
Details: 101.3 kPa, Liquid; for viscosity: Falling or rolling sphere viscometry; for mass density: Vibrating tube method

CCCC[n+]1ccn(C)c1.O=S(=O)([N-]S(=O)(=O)C(F)(F)F)C(F)(F)F + CCOC(=O)OCC
Details | mass density, 288.15 K [kg/m3] | mass density, 293.15 K [kg/m3] | mass density, 298.15 K [kg/m3] | mass density, 303.15 K [kg/m3] | viscosity, 288.15 K [mPa·s] | viscosity, 293.15 K [mPa·s] | viscosity, 298.15 K [mPa·s] | viscosity, 303.15 K [mPa·s] | viscosity, 308.15 K [mPa·s]
x1 = 0.1025 | 1086.84 ± 2.6 | 1081.45 ± 2.6 | 1076.05 ± 2.6 | 1070.65 ± 2.6 | 2.12 ± 0.048 | 1.928 ± 0.043 | 1.764 ± 0.039 | 1.618 ± 0.036 | 1.492 ± 0.033
x1 = 0.2198 | 1177.9 ± 2.9 | 1172.7 ± 2.9 | 1167.48 ± 2.8 | 1162.26 ± 2.8 | 4.415 ± 0.099 | 3.925 ± 0.086 | 3.517 ± 0.077 | 3.168 ± 0.07 | 2.873 ± 0.063
x1 = 0.3178 | 1236.57 ± 3 | 1231.47 ± 3 | 1226.35 ± 3 | 1221.23 ± 3 | 7.583 ± 0.17 | 6.526 ± 0.14 | 5.739 ± 0.13 | 5.085 ± 0.11 | 4.539 ± 0.1
x1 = 0.4211 | 1285.86 ± 3.1 | 1280.83 ± 3.1 | 1275.8 ± 3.1 | 1270.77 ± 3.1 | 13.26 ± 0.29 | 11.18 ± 0.25 | 9.492 ± 0.21 | 8.179 ± 0.18 | 7.219 ± 0.16
x1 = 0.5268 | 1327.09 ± 3.2 | 1322.13 ± 3.2 | 1317.16 ± 3.2 | 1312.2 ± 3.2 | 20.12 ± 0.45 | 17.25 ± 0.38 | 14.77 ± 0.33 | 12.6 ± 0.28 | 10.76 ± 0.24
x1 = 0.622 | 1358.33 ± 3.3 | 1353.42 ± 3.3 | 1348.49 ± 3.3 | 1343.58 ± 3.3 | 28.36 ± 0.63 | 23.42 ± 0.52 | 19.58 ± 0.43 | 17.03 ± 0.37 | 14.69 ± 0.32
x1 = 0.7193 | 1385.68 ± 3.4 | 1380.79 ± 3.4 | 1375.9 ± 3.3 | 1371.04 ± 3.3 | 38.93 ± 0.86 | 31.68 ± 0.7 | 26.16 ± 0.58 | 21.88 ± 0.48 | 18.7 ± 0.41
x1 = 0.8139 | 1408.25 ± 3.4 | 1403.38 ± 3.4 | 1398.52 ± 3.4 | 1393.68 ± 3.4 | 50.88 ± 1.1 | 40.79 ± 0.91 | 33.25 ± 0.74 | 27.57 ± 0.61 | 23.2 ± 0.51
x1 = 0.9088 | 1428.49 ± 3.5 | 1423.65 ± 3.5 | 1418.81 ± 3.5 | 1413.97 ± 3.4 | 64.94 ± 1.5 | 51.44 ± 1.1 | 41.43 ± 0.92 | 34.06 ± 0.75 | 28.32 ± 0.63
x1 = 1 | 1445.66 ± 3.5 | 1440.84 ± 3.5 | 1436.01 ± 3.5 | 1431.21 ± 3.5 | 78.02 ± 2 | 61.32 ± 1.4 | 48.93 ± 1.1 | 39.84 ± 0.88 | 32.91 ± 0.73
